With `CCCNC(=O)N1CCCc2cc(C3=NNC(=O)SC3C)ccc21` (stereo not drawn) [Example 4], the melting point was in the range of 151 to 153 °C.
The molecule `CC1SC(=O)NN=C1c1ccc2c(c1)CCCN2C(=O)NCc1ccc(F)cc1` (stereo not drawn) [Example 10] returned a melting point of 158 to 160 °C.
`CC1SC(=O)NN=C1c1ccc2c(c1)CCCN2C(=O)Nc1ccccc1` (stereo not drawn) [Example 6]: the melting point was 213 to 214 °C (dec.).
`Cc1ccccc1NC(=O)N1CCCc2cc(C3=NNC(=O)SC3C)ccc21` (stereo not drawn) [Example 9] gave a melting point of 153 to 154 °C.
As for `CC1SC(=O)NN=C1c1ccc2c(c1)CCCN2C(=O)CCc1ccccc1` (stereo not drawn) [Example 17], the melting point was 172 to 174 °C.
For `CC1SC(=O)NN=C1c1ccc2c(c1)CCCN2C(=O)c1ccco1` (stereo not drawn) [Example 11] the value was 159 to 161 °C; for `CC1SC(=O)NN=C1c1ccc2c(c1)CCCN2C(=O)Cc1c(Cl)cccc1Cl` (stereo not drawn) [Example 14], 188 to 189 °C.
The figure for `CC1SC(=O)NN=C1c1ccc2c(c1)CCCN2C(=O)C1CCCCC1` (stereo not drawn) [Example 16] is 148 to 150 °C (dec.); for `CCNC(=O)N1CCCc2cc(C3=NNC(=O)SC3C)ccc21` (stereo not drawn) [Example 3] it is 122 to 124 °C (dec.).
As for `CC1SC(=O)NN=C1c1ccc2c(c1)CCCN2C(=O)Nc1cccc2ccccc12` (stereo not drawn) [Example 8], the melting point was 165 to 166 °C (dec.).
The figure for `CCCCNC(=O)N1CCCc2cc(C3=NNC(=O)SC3C)ccc21` (stereo not drawn) [Example 5] is 133 to 134 °C; for `CC1SC(=O)NN=C1c1ccc2c(c1)CCCN2` (stereo not drawn) [Example 2] it is 176 to 178 °C; for `CC1SC(=O)NN=C1c1ccc2c(c1)CCCN2C(=O)c1cccs1` (stereo not drawn) [Example 18] it is 190 to 191 °C.
The molecule `CC1SC(=O)NN=C1c1ccc2c(c1)CCCN2C(=O)c1ccccc1` (stereo not drawn) [Example 13] showed a melting point of 202 to 204 °C.
The figure for `CC1SC(=O)NN=C1c1ccc2c(c1)CCCN2C(=O)Nc1ccc(Cl)cc1` (stereo not drawn) [Example 7] is 218 to 220 °C (dec.).

The record behind these values is patent publication US6699857B1, “Tetrahydroquinolinyl 6-methyldihydrothiadiazinone derivatives and use thereof” (Bayer Aktiengesellschaft, priority 1999, dated 2004).
